“And” between values parts separate entries of the source, which are not always exact repeats. Equal values may be shown once.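 Following 48 hours of exposure in 96-well plates, responses at five concentrations were used to interpolate endpoints linearly. GI50 is the concentration that inhibits growth by half. At the TGI there is no net growth.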
Key:
Experiment in all cases: growth of human tumour cells (NCI), 48 h
[1] = test system: U251 CNS
[2] = test system: NCI-H522 lung
[3] = test system: SF-268 CNS
[4] = test system: LOX IMVI melanoma
[5] = test system: EKVX NSCLC
[6] = test system: PC-3 prostate
[7] = test system: BT-549 breast
[8] = test system: HCT-116 colon
[9] = test system: KM12 colon
[10] = test system: COLO 205 colon

SMILES | TGI [1] | TGI [2] | TGI [3] | TGI [4] | TGI [5] | TGI [6] | GI50 [1] | GI50 [7] | TGI [7] | TGI [8] | GI50 [5] | TGI [9] | TGI [10] | GI50 [2] | GI50 [3] | GI50 [10] | GI50 [4] | GI50 [8] | GI50 [9] | GI50 [6]
CN(C)C(=S)/N=c1\ssc(=Nc2ccccc2)n1-c1ccccc1 | 70.7 µM | 34 µM | 98.2 µM | 87 µM | 94.4 µM |  |  |  |  |  |  |  |  |  |  |  |  |  |  | 
CN1C2C=CC(=O)C1C(C#N)C2 (centres undefined) | > 100 µM |  | > 100 µM |  | 49.6 µM and > 100 µM | > 100 µM | 23.6 µM | 34.5 µM and 93.1 µM | > 100 µM | 54.9 µM and > 100 µM | 20.6 µM and 44.2 µM | > 100 µM |  |  |  |  |  |  |  | 
COc1ccc(OCC(=O)O)c2c1CCC(C)C2=O (centres undefined) | > 100 µM | > 100 µM | > 100 µM | > 100 µM | > 100 µM |  |  |  |  | > 100 µM |  | > 100 µM | > 100 µM |  |  |  |  |  |  | 
Cc1cccc(C=NC23CC4CC(CC(C4)C2)C3)c1 | > 100 µM | > 100 µM | > 100 µM | > 100 µM | > 100 µM |  |  |  |  | > 100 µM |  | > 100 µM | > 100 µM |  |  |  |  |  |  | 
O=C(Nc1ccccc1)N1C(c2ccccc2)=N[C@@H](c2ccccc2)[C@@H]1c1ccccc1 |  |  | 49.2 µM | 28.2 µM | > 100 µM |  |  |  |  | 36.3 µM |  | 34 µM | 28.8 µM |  |  |  |  |  |  | 
N.N.N.N.O=S([O-])[O-].[Co+3].[N-]=[N+]=[N-] | > 100 µM | > 100 µM | > 100 µM | > 100 µM | > 100 µM |  | > 100 µM |  |  | > 100 µM | > 100 µM | > 100 µM | > 100 µM | 42.3 µM | > 100 µM | > 100 µM | > 100 µM | > 100 µM | > 100 µM | 
CCOC(=N)CC(=O)Nc1ccccc1CC | > 100 µM | > 100 µM | > 100 µM | > 100 µM | > 100 µM |  |  |  |  | > 100 µM |  | > 100 µM | > 100 µM |  |  |  |  |  |  | 
C[C@@H]1CC2(C[C@@H](C)C3[C@@H](CC4(C)CCCC5C6=CC(O)(CC[C@]34C)OC6=CC(=O)OC5(C)C)O2)OC1=O (some centres undefined) | > 100 µM | > 100 µM |  | > 100 µM |  |  |  |  |  | > 100 µM |  | > 100 µM | > 100 µM |  |  |  |  |  |  | 
N#C/C(=C/C=C/c1cccc(Cl)c1)S(=O)c1ccccc1 (centres undefined) | 1.31 µM | 0.804 µM | 2.14 µM | 0.343 µM | 2.23 µM | 0.867 µM | 0.361 µM |  |  | 0.642 µM | 0.803 µM | 1.38 µM | 1.31 µM | 0.251 µM | 0.391 µM | 0.386 µM | 0.175 µM | 0.241 µM | 0.321 µM | 0.25 µM
C=C(c1ccccc1)c1cc2c(=O)[nH]ccc2n1C |  | 54.9 µM | > 100 µM | > 100 µM | > 100 µM |  |  |  |  |  |  | > 100 µM | 35.6 µM |  |  |  |  |  |  | 
COc1ccc(C2=NNC(c3sc(Cl)nc3Cl)C2)cc1 (centres undefined) | 22.1 µM | 7.69 µM | 27.5 µM | 13.7 µM |  | 29.5 µM | 9.08 µM | 2.89 µM | 9.82 µM | 14.9 µM |  | 19.8 µM | 4.4 µM | 2.23 µM | 5.65 µM | 2.17 µM | 3.25 µM | 3.39 µM | 5.56 µM | 6.11 µM
O=C(Cc1nc2ccccc2s1)C(=O)Nc1cccc(C(F)(F)F)c1 | > 100 µM | > 100 µM | > 100 µM |  | > 100 µM |  |  |  |  | > 100 µM |  | > 100 µM | > 100 µM |  |  |  |  |  |  | 
CCCCS(=O)(=O)c1cc(Nc2ccc(O)c3c2C(=O)c2ccccc2C3=O)ccc1C | > 100 µM | > 100 µM | > 100 µM |  |  | > 100 µM | 35.8 µM | > 100 µM | > 100 µM | > 100 µM |  | > 100 µM |  | > 100 µM | 57.7 µM |  |  | > 100 µM | > 100 µM | > 100 µM
O=C(O)C1CC2C=CCC(C2)C1 (centres undefined) | > 100 µM | > 100 µM | > 100 µM | > 100 µM | > 100 µM |  |  |  |  | > 100 µM |  | > 100 µM | > 100 µM |  |  |  |  |  |  | 
C/C(=C\c1ccccc1)C(=O)c1c(C)cc(C)cc1C | > 100 µM | > 100 µM | > 100 µM |  | > 100 µM |  |  |  |  | > 100 µM |  | > 100 µM | > 100 µM |  |  |  |  |  |  | 
Cn1cnnc1Sc1c([N+](=O)[O-])nc(-c2ccc([N+](=O)[O-])cc2)n1C | 30.2 µM | 19.7 µM | 32.5 µM | 26.8 µM | 76.1 µM |  |  |  |  | 28.4 µM |  | 41.2 µM | 28.3 µM |  |  |  |  |  |  | 
Cc1nc(Nc2ccc(Cl)cc2)sc1C(=O)Nc1cccc2c(=O)[nH][nH]c(=O)c12 | > 100 µM | 75.5 µM | > 100 µM | 33 µM | 44.2 µM |  |  |  |  | > 100 µM |  | > 100 µM | 34 µM |  |  |  |  |  |  | 
BrCc1ccc2ccc3ccc(CBr)nc3c2n1 | 19 µM |  | 9.04 µM | 3.21 µM | 22.6 µM | 5.75 µM |  |  |  | 6.7 µM |  | 14.7 µM | 4.3 µM |  |  |  |  |  |  | 
NC(=S)c1cccc(C2Nc3ccccc3O2)c1 (centres undefined) | > 100 µM | > 100 µM | > 100 µM |  | > 100 µM | > 100 µM |  |  |  | > 100 µM |  | > 100 µM | > 100 µM |  |  |  |  |  |  | 
COc1cc(N)c(Cl)cc1C(=O)N[C@@H]1CCN(CCCOc2ccc(F)cc2)C[C@@H]1OC | > 100 µM | > 100 µM | > 100 µM | > 100 µM | > 100 µM |  | > 100 µM | 34.9 µM | > 100 µM | > 100 µM | > 100 µM | > 100 µM | > 100 µM | 61.8 µM | > 100 µM | 54.8 µM | 27 µM | 41.8 µM | 33.3 µM | 
Nc1ccc(C(=O)N/C(=C\c2ccc3c(c2)OCO3)c2nc3ccccc3s2)cc1 | 26.4 µM | 28.5 µM | 24.2 µM |  | 25.9 µM |  |  |  |  |  |  | 28 µM | 34.9 µM |  |  |  |  |  |  | 
COc1ccccc1/C=C(\NC(=O)c1ccccc1)c1nc2ccccc2[nH]1 | > 100 µM | > 100 µM | > 100 µM | > 100 µM | > 100 µM |  |  |  |  | > 100 µM |  | > 100 µM | 80.3 µM |  |  |  |  |  |  | 

— PubChem BioAssay (NCI)
